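Dose response: 5 concentrations. Exposure: 48 h. Format: 96-well plates. Endpoint: linear interpolation; highest concentration if not reached. TGI: total growth inhibition.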
How the values were obtained:
Assay in all cases: NCI tumour cell line growth inhibition, 48 h
NCI-H23 lung = test system: NCI-H23 lung
DMS 114 small cell lung = test system: DMS 114 small cell lung
SW-620 colon = test system: SW-620 colon
CCRF-CEM leukemia = test system: CCRF-CEM leukemia
HT29 colon = test system: HT29 colon
UO-31 renal = test system: UO-31 renal
SK-MEL-28 melanoma = test system: SK-MEL-28 melanoma
EKVX NSCLC = test system: EKVX NSCLC
P388 leukemia = test system: P388 leukemia
SK-MEL-2 melanoma = test system: SK-MEL-2 melanoma
SN12K1 renal = test system: SN12K1 renal
OVCAR-5 ovarian = test system: OVCAR-5 ovarian
SNB-19 CNS = test system: SNB-19 CNS
SF-295 CNS = test system: SF-295 CNS
CAKI-1 renal = test system: CAKI-1 renal
M14 melanoma = test system: M14 melanoma
UACC-257 melanoma = test system: UACC-257 melanoma
RPMI-8226 leukemia = test system: RPMI-8226 leukemia
DLD-1 colon = test system: DLD-1 colon
SK-OV-3 ovarian = test system: SK-OV-3 ovarian
HOP-92 NSCLC = test system: HOP-92 NSCLC
IGROV1 ovarian = test system: IGROV1 ovarian
SR leukemia = test system: SR leukemia
SF-268 CNS = test system: SF-268 CNS
KM12 colon = test system: KM12 colon
NCI-H522 lung = test system: NCI-H522 lung
SNB-78 CNS = test system: SNB-78 CNS
HOP-18 NSCLC = test system: HOP-18 NSCLC
SF-539 CNS = test system: SF-539 CNS
LOX IMVI melanoma = test system: LOX IMVI melanoma
RXF 393 renal = test system: RXF 393 renal
A549 NSCLC = test system: A549 NSCLC
COLO 205 colon = test system: COLO 205 colon
MOLT-4 leukemia = test system: MOLT-4 leukemia
NCI-H226 lung = test system: NCI-H226 lung
OVCAR-4 ovarian = test system: OVCAR-4 ovarian
NCI/ADR-RES ovarian = test system: NCI/ADR-RES ovarian
SN12C renal = test system: SN12C renal
SNB-75 CNS = test system: SNB-75 CNS
HCT-116 colon = test system: HCT-116 colon
A498 renal = test system: A498 renal
XF 498 CNS = test system: XF 498 CNS
M19-MEL melanoma = test system: M19-MEL melanoma
MALME-3M melanoma = test system: MALME-3M melanoma
MCF7 breast = test system: MCF7 breast
HOP-62 NSCLC = test system: HOP-62 NSCLC
LXFL 529 NSCLC = test system: LXFL 529 NSCLC
DMS 273 small cell lung = test system: DMS 273 small cell lung
NCI-H460 lung = test system: NCI-H460 lung
K-562 leukemia = test system: K-562 leukemia
786-0 renal = test system: 786-0 renal
HL-60(TB) leukemia = test system: HL-60(TB) leukemia
HCC-2998 colon = test system: HCC-2998 colon
UACC-62 melanoma = test system: UACC-62 melanoma
OVCAR-3 ovarian = test system: OVCAR-3 ovarian
SK-MEL-5 melanoma = test system: SK-MEL-5 melanoma
U251 CNS = test system: U251 CNS
KM20L2 colon = test system: KM20L2 colon
OVCAR-8 ovarian = test system: OVCAR-8 ovarian
RXF-631 renal = test system: RXF-631 renal
HCT-15 colon = test system: HCT-15 colon
P388/ADR leukemia = test system: P388/ADR leukemia

Measured: TGI

CNC(=O)OCc1nc(SC2CCCCO2)n(C)c1COC(=O)NC (configuration not stated)
> 100 µM: all assays above
